Patent US5484803A, “Transcutaneous in vivo activation of photosensitive agents in blood” (priority 1995, dated 1996)

Legend:
mouse blood = assay: Blood parameters two weeks after treatment (Coulter Counter); assay type: in vivo, Balb/c mice; settings: for HB (hemoglobin) / Hct (hematocrit) / MCV / PLT (platelet count) / RBC / WBC: 2 weeks
Experimental: Blood Tests: Blood was drawn into syringes containing 50 μl of heparin (1000 units/ml saline). Blood samples (0.45 ml) from at least 1 mouse per time point were sent to the Diagnostic Laboratory at the University Hospital, University of British Columbia site, for analysis by a Coulter Counter. Blood morphology was determined on blood films prepared from selected samples by a laboratory technologist.
Six Balb/c mice (22±1 g weight) were prepared as described above. Five mice were injected twice (24 hour interval) with BPD from DMSO stock (not liposomal BPD) and exposed to light 1 hour after the injection. One mouse was not injected but was exposed to light (light-only control). During the first treatment the mice were injected with 15 μg BPD/mouse in 200 μl of PBS. During the second treatment the mice were injected with 20 μg BPD/mouse (0.9 mg/kg). A single mouse was used as a control for both treatments.
Immediately post-injection (on both occasions) the animals were kept for 1 hour in the dark and then were placed in individual plastic containers (9×4×5 cm), which were placed in the light box and exposed to light. The individual mice were removed from the light box at different intervals: 15, 30, 45, 60 and 75 min, respectively. The light doses delivered at the surface of the skin were 27, 54, 81, 108 and 135 J/cm^2, respectively. On the second occasion the same light doses were used; however, mice receiving higher light doses on day 1 received lower doses on day 2. The control mouse was exposed to light for 60 min on both occasions. During light exposure, the mice were constantly observed for signs of discomfort or itching. After the second light exposure, the mice were observed daily for a period of 2 weeks for appearance of the skin and general pattern of behavior.
Two weeks post-treatment blood samples were obtained from each mouse by a heart puncture, under halothane anesthesia. Then the mice were sacrificed and autopsied. Their spleen, liver and kidneys were weighed.

L1210 cells = assay: Surviving clonogenic L1210 cells in mouse blood; assay type: in vivo, Balb/c mice; settings: for Surviving cells in blood: average of 3 mice/group
Experimental: (§1) Male mature DBA/2 and Balb/c mice were injected intravenously with P815 and L1210 cells, respectively, preincubated for 1 hour with BPD (liposomal) at 100 ng/ml. Immediately before animal injection, an additional 2 μg of BPD was added to the syringes containing cells. […] One group of mice (shaved and depilated) was exposed immediately to red light (600-900 nm) in the light box for 1.5 hours (162 J/cm^2); the other group was kept in the dark as the control.
(§2) Immediately after exposure to light, blood samples were obtained by a heart puncture under halothane anesthesia. The concentration of BPD in plasma of light-exposed and control mice was determined by fluorescence. The number of clonogenic tumor cells in mouse blood was determined by culturing blood samples in culture medium supplemented with 10% bovine serum, using a limiting dilution assay protocol.

[1] = BPD concentration in plasma of mice injected with P815 cells; assay type: in vivo, DBA/2 mice; settings: for BPD in Plasma: DBA/2 mice injected with P815 cells; for BPD in Plasma, % of dark control: P815
Experimental: Determination of BPD Concentration in Plasma: Plasma samples were obtained by centrifugation of blood collected from mice and stored frozen at -20° C. until assessment. The concentration of BPD in the samples was determined by fluorometry using a Jasco Model FP-770 (Japan Spectroscopic Co.) spectrofluorometer and a microcuvette (Far UV Quartz Cell, Starna Cells Inc.). Excitation and emission wavelengths were 439 and 699 nm, respectively. Plasma samples were diluted 20-fold with PBS containing 1% Triton® X-100 immediately before fluorescence was determined. BPD standards were prepared in 5% mouse plasma in PBS with 1% Triton® X-100. Under these conditions the relationship between the concentration of BPD and units of fluorescence was linear (correlation coefficient >0.99) for concentrations between 0.1 ng/ml and 1 μg/ml. The limit of detection was below 0.1 ng/ml sample which corresponded to 2 ng/ml plasma. […] The 699 nm fluorescence peak of BPD was virtually free from any interference.
as §1, §2

virus-infected T cells = settings: after exposure of BPD-treated, virus-infected T cells to light; cited from earlier work
Red blood cells = settings: after the virucidal treatment; cited from earlier work
[2] = mouse 1, light 27 then 135 J/cm^2
[3] = mouse 2, light 54 then 108 J/cm^2
[4] = mouse 3, light 81 then 81 J/cm^2
[5] = mouse 4, light 108 then 54 J/cm^2
[6] = mouse 5, light 135 then 27 J/cm^2

For “benzoprophyrin derivative monoacid ring A [BPD]”, the “HB (hemoglobin)” value (mouse blood; [2]) was 122 g/L, the “Hct (hematocrit)” value (mouse blood; [2]) was 0.352 and the MCV (mouse blood; [2]) was 49.5 fL. The “PLT (platelet count)” value (mouse blood; [2]) was 328 10^6 /ml, the RBC (mouse blood; [2]) was 7.11 10^9 /ml and the WBC (mouse blood; [2]) was 4.0 10^6 /ml. The “HB (hemoglobin)” value (mouse blood; [3]) was 126 g/L, the “Hct (hematocrit)” value (mouse blood; [3]) was 0.382 and the MCV (mouse blood; [3]) was 49.2 fL. The “PLT (platelet count)” value (mouse blood; [3]) was 274 10^6 /ml, the RBC (mouse blood; [3]) was 7.76 10^9 /ml and the WBC (mouse blood; mouse 2, light 54 then 108 J/cm^2, platelet aggregate may contribute) was 14.7 10^6 /ml. The “HB (hemoglobin)” value (mouse blood; [4]) was 124 g/L, the “Hct (hematocrit)” value (mouse blood; [4]) was 0.365 and the MCV (mouse blood; [4]) was 48.9 fL. The “PLT (platelet count)” value (mouse blood; [4]) was 119 10^6 /ml, the RBC (mouse blood; [4]) was 7.46 10^9 /ml and the WBC (mouse blood; [4]) was 8.2 10^6 /ml. The “HB (hemoglobin)” value (mouse blood; [5]) was 123 g/L, the “Hct (hematocrit)” value (mouse blood; [5]) was 0.364 and the MCV (mouse blood; [5]) was 47.6 fL. The “PLT (platelet count)” value (mouse blood; [5]) was 438 10^6 /ml, the RBC (mouse blood; [5]) was 7.65 10^9 /ml and the WBC (mouse blood; [5]) was 7.6 10^6 /ml. For the same substance, the “HB (hemoglobin)” value (mouse blood; [6]) was 108 g/L, the “Hct (hematocrit)” value (mouse blood; [6]) was 0.316 and the MCV (mouse blood; [6]) was 48.8 fL. For the same substance, the “PLT (platelet count)” value (mouse blood; [6]) was 134 10^6 /ml, the RBC (mouse blood; [6]) was 6.47 10^9 /ml and the WBC (mouse blood; [6]) was 2.9 10^6 /ml. For the same substance, the “all blood values (Tables 3 and 4)” value (mouse blood; two weeks post-treatment) was “within normal ranges”, the “Surviving cells in blood” value (L1210 cells; Dark control) was 234 L1210 cells/2 ml blood/mouse and the “Surviving cells in blood” value (L1210 cells; Light exposed (162 J/cm^2)) was 21 L1210 cells/2 ml blood/mouse. The “destruction of BPD pre-loaded tumor cells” value (L1210 cells; whole body exposure to red light (L1210 and P815 examples)) was “a large number of BPD pre-loaded tumor cells were destroyed”, the Percent photodegraded ([1]; DBA/2, P815, 162 J/cm^2) was 38% and the “BPD in Plasma” value ([1]; Dark control) was 94.09 ng/mL. For the same substance, the “BPD in Plasma, % of dark control” value ([1]; Dark control) was 100%, the “BPD in Plasma” value ([1]; Light exposed (162 J/cm^2)) was 58.14 ng/mL and the “BPD in Plasma, % of dark control” value ([1]; Light exposed (162 J/cm^2)) was 62%. The “effect on virus-infected T cell membrane” value (virus-infected T cells) was “holes developed in the T cell membrane, which increased in size until the membrane completely decomposed” and the “red blood cell viability” value (Red blood cells) was “appeared viable”.
